Broadly, the IC50 is the midpoint of a concentration-inhibition curve. In general, efflux ratio refers to the permeability from basolateral to apical divided by that in the opposite direction, in the common usage.

A value given as a limit tells only on which side of the number the result lay.

Experimental findings from ChEMBL document CHEMBL4396868, “Discovery of Potent, Selective, and Brain-Penetrant 1 H-Pyrazol-5-yl-1 H-pyrrolo[2,3- b]pyridines as Anaplastic Lymphoma Kinase (ALK) Inhibitors” (J Med Chem, 2019) are described below.

Data set [1] concerns the target High affinity nerve growth factor receptor (Homo sapiens, UniProt P04629). Briefly: Inhibition of N-terminal GST-tagged human TrkA kinase domain (436 to 790 residues) expressed in baculovirus expression system using biotin-poly-GT as substrate pre-incubated for 5 mins followed by ATP addition and measured after 60 mins by alpha screen assay.
The target in data set [2] is T1, ALK tyrosine kinase receptor (Homo sapiens, UniProt Q9UM73).
T1 sequence (Q9UM73 whole entry): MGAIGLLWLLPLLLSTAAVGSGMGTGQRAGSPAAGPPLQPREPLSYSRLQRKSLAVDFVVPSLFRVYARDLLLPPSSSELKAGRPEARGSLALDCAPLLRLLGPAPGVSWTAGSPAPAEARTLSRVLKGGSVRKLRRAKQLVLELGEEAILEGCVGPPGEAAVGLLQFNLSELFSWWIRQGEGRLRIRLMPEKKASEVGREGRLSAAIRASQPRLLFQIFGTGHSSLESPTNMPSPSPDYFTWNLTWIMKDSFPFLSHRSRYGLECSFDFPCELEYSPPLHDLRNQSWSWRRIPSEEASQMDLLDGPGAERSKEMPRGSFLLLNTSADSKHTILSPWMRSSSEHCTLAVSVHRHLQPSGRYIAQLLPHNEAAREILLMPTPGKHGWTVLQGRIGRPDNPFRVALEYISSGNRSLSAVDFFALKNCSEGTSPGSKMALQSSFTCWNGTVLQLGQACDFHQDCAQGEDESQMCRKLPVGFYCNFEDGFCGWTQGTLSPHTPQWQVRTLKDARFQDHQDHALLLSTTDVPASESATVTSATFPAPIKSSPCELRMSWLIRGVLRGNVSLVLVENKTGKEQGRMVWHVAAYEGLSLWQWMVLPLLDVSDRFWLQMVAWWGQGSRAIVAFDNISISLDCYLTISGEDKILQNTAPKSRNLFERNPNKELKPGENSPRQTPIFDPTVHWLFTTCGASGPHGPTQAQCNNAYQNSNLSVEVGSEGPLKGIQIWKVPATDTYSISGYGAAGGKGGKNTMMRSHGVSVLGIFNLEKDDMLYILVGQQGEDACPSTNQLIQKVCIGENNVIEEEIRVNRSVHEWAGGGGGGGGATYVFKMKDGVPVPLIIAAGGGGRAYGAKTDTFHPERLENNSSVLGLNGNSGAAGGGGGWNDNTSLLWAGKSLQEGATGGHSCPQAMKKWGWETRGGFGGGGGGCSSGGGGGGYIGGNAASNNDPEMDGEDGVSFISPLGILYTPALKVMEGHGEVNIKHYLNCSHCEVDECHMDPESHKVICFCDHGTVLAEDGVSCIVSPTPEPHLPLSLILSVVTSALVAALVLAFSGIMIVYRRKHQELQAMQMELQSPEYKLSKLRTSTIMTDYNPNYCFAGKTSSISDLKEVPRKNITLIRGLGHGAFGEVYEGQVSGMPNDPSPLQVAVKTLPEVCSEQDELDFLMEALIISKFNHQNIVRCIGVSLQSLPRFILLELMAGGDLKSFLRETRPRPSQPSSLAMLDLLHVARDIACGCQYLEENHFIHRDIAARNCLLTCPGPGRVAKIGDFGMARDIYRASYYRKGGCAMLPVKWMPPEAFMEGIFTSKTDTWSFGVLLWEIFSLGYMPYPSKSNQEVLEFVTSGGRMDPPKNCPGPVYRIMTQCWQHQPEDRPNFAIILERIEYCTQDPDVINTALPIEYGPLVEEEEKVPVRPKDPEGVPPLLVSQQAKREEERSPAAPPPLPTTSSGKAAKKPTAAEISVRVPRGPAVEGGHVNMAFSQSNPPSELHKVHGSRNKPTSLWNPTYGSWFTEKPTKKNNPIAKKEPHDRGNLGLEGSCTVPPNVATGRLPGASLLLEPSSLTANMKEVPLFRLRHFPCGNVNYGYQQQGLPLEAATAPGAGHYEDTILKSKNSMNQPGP
Description: Inhibition of human ALK kinase domain (1058 to 1620 residues) expressed in baculovirus expression system using biotin-poly-GT as substrate pre-incubated for 10 mins followed by ATP addition and measured after 60 mins by HTRF method
For data set [3], the target named is T1, ALK tyrosine kinase receptor. Type of data set: cell-based, HEK293.
Description: Inhibition of recombinant human ALK expressed in HEK293 cells assessed as reduction in ALK autophosphorylation at Tyr1604 residue incubated for 60 mins by sandwich ELISA
Another data set addresses MDR1 (ABCB1, P-gp) (Homo sapiens, UniProt P08183). Briefly: Substrate activity at human MDR1 expressed in pig LLC-PK1 cells assessed as efflux ratio of apparent permeability across basolateral to apical over apical to basolateral side at 10 uM after 2 hrs by LC/MS/MS analysis. Type of data set: ADME, cell-based.
The species named for the next data set is Homo sapiens. Briefly: Selectivity ratio of IC50 for N-terminal GST-tagged human TrkA kinase domain (436 to 790 residues) expressed in baculovirus expression system to IC50 for human ALK kinase domain (1058 to 1620 residues) expressed in baculovirus expression system.

Sequence of High affinity nerve growth factor receptor (P04629 whole entry, the tested form may be a part): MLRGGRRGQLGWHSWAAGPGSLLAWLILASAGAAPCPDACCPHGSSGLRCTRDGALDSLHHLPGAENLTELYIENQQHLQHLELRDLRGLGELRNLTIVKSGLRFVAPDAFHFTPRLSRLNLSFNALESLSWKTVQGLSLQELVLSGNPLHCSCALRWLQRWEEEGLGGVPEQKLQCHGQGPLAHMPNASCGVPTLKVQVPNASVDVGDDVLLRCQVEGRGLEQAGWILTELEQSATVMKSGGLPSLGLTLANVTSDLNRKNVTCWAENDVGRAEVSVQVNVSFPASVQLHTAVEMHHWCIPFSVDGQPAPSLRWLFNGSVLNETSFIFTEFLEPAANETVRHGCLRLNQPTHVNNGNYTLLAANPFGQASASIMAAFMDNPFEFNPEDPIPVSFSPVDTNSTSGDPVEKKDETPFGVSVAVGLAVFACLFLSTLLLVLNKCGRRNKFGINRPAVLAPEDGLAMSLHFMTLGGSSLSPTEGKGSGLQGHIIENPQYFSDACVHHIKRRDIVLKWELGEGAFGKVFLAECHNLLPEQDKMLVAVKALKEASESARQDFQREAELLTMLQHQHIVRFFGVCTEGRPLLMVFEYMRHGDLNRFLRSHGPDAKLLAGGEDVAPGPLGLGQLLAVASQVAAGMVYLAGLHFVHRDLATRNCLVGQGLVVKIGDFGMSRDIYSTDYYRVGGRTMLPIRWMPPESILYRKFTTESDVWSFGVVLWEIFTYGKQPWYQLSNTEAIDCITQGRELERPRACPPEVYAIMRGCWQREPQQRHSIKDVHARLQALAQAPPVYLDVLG
Sequence of MDR1 (ABCB1, P-gp) (P08183 whole entry, the tested form may be a part): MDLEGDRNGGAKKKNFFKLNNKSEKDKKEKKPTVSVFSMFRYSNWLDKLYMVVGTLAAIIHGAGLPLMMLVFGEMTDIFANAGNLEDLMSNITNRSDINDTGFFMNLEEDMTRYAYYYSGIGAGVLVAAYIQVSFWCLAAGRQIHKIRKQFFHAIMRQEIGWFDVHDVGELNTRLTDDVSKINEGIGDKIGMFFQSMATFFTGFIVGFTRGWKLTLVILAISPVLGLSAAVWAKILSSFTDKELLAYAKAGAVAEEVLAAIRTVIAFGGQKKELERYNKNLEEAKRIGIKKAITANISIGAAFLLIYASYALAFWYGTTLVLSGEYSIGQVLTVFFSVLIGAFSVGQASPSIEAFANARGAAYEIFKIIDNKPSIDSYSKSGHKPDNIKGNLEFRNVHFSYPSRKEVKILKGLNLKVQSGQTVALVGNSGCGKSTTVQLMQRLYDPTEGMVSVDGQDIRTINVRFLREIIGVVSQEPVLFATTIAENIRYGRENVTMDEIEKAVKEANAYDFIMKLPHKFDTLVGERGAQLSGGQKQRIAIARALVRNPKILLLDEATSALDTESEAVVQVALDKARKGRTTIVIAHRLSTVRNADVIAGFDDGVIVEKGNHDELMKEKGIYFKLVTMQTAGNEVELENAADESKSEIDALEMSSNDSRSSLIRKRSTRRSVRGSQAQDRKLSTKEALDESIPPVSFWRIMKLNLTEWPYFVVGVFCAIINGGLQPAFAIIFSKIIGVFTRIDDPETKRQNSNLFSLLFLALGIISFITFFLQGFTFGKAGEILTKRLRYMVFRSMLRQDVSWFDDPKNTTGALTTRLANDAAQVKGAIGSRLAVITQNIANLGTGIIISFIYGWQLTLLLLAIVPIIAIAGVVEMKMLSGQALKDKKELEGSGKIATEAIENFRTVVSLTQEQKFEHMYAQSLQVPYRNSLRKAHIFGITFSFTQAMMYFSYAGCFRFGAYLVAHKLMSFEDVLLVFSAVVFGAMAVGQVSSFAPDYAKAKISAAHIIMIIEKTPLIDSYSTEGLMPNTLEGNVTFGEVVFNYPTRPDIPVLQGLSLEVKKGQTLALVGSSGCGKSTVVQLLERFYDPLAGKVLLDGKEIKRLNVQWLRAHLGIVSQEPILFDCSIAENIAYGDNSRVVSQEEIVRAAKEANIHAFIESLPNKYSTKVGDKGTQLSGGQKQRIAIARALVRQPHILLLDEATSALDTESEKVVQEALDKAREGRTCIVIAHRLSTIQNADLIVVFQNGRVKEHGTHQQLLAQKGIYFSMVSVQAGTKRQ

Consider `Cc1cc(-c2cnc3ccc(N[C@@H](C)c4ccc(F)cc4F)nn23)[nH]n1`, for which the IC50 was 0.0001 µM in data set [1], 0.002 µM in data set [2] and 0.006 µM in data set [3].
`Cc1cc(-n2cc(C(=O)N3CCO[C@H](C)C3)c3ccc(O[C@H](C)c4ccc(F)cn4)nc32)[nH]n1` (relative stereo): the half-maximal inhibitory concentration (IC50) in data set [1] was found to be 3.4 µM; in data set [2] it was 0.0046 µM; in data set [3] it was 0.042 µM. The efflux ratio at 2 h, 10 µM on MDR1 (ABCB1, P-gp) is 1.3.
In the case of `Cc1cc(-n2cc(S(C)(=O)=O)c3ccc(N[C@@H](C)c4ccc(F)cn4)nc32)n[nH]1`, the values for the IC50 in data set [1], in data set [2] and in data set [3] were 0.045 µM, 0.0033 µM and 0.013 µM, respectively.
The matching figures for `Cc1cc(-n2ccc3ccc(N[C@@H](C)c4ccc(F)cc4F)nc32)[nH]n1`: under 0.01 µM, 0.014 µM and 0.14 µM.
With `COCc1cn(-c2cc(C)n[nH]2)c2nc(OC(C)c3ccc(F)cn3)ccc12` (racemic; 16), the figures for the IC50 in data set [1] and in data set [2] were 1.5 µM and 2.8 µM, respectively.
`Cc1cc(-n2cc(S(=O)(=O)C3COC3)c3ccc(N[C@@H](C)c4ccc(F)cn4)nc32)n[nH]1`: the IC50 in data set [1] was found to be 0.73 µM; in data set [2], 0.02 µM; in data set [3], 0.06 µM.
`Cc1cc(-n2cc(S(C)(=O)=O)c3ccc(N[C@@H](C)c4ccc(F)cc4F)nc32)n[nH]1`: the IC50 in data set [1] is 0.015 µM; in data set [2], 0.0012 µM; in data set [3], 0.027 µM.
`COCc1cn(-c2cc(C)n[nH]2)c2nc(OC(C)c3ccc(F)cn3)ccc12` (racemic; 15): the IC50 was under 0.01 µM in data set [1] and 0.0032 µM in data set [2].
As for `Cc1cc(-n2cc(S(=O)(=O)C(C)C)c3ccc(N[C@@H](C)c4ccc(F)cn4)nc32)n[nH]1`, in the data set listed under Homo sapiens, the Ratio IC50 stood at 94. Also, the concentration for half-maximal inhibition (IC50) in data set [1] came out at 1.7 µM; in data set [2], 0.018 µM; in data set [3], 0.27 µM.
Regarding `Cc1cc(-n2cc(C(=O)N3CCN(C)CC3)c3ccc(N[C@@H](C)c4ccc(F)cn4)nc32)[nH]n1`, the IC50 is 0.25 µM in data set [1], 0.0061 µM in data set [2] and 0.037 µM in data set [3].
The matching figures for `Cc1cc(-n2cc(C3=CCOCC3)c3ccc(N[C@@H](C)c4ccc(F)cn4)nc32)[nH]n1`: 0.0027 µM, 0.0019 µM and 0.0094 µM.
Consider `Cc1cc(-n2cc(C(=O)N3CCOCC3)c3ccc(OC(C)c4ccc(F)cn4)nc32)[nH]n1` (racemic), for which the IC50 was 1.4 µM in data set [1], 0.0062 µM in data set [2] and 0.069 µM in data set [3]. The efflux ratio at 2 h, 10 µM at MDR1 (ABCB1, P-gp) was 3.1.
On to `Cc1cc(-c2cnc3ccc(N[C@H](C)c4ccc(F)cc4F)nn23)[nH]n1`, for which 1 µM corresponded to half-maximal inhibition in data set [2] (IC50).
In the case of `CCS(=O)(=O)c1cn(-c2cc(C)[nH]n2)c2nc(N[C@@H](C)c3ccc(F)cn3)ccc12`, the IC50 in data set [1] came out at 0.11 µM; in data set [2], 0.0096 µM; in data set [3] it was 0.037 µM.
As for `Cc1cc(-n2cc(C(=O)N3CCOCC3)c3ccc(N[C@@H](C)c4ccc(F)cn4)nc32)[nH]n1`, the Ratio IC50 in the data set listed under Homo sapiens was 480. For the same compound, the half-maximal inhibitory concentration (IC50) in data set [1] was 1.2 µM; in data set [2], 0.0025 µM; in data set [3] it was 0.023 µM. On MDR1 (ABCB1, P-gp), the efflux ratio at 2 h, 10 µM amounted to 18.
In the case of `Cc1cc(-n2cc(C(=O)N(C)C)c3ccc(N[C@@H](C)c4ccc(F)cn4)nc32)[nH]n1`, in the data set filed under Homo sapiens, the Ratio IC50 was found to be 67. Moreover, the IC50 in data set [1] worked out at 0.12 µM; in data set [2], 0.0018 µM; in data set [3], 0.016 µM.
